Assay results from patent US20080021054A1, “COMPOSITIONS AND TREATMENTS FOR INHIBITING KINASE AND/OR HMG-COA REDUCTASE” (priority 2004, published 2008).
Several values for one entry are separate records, joined by “and”; a condition that tells them apart may be missing. Identical values can stand only once.

System: oxazolone-induced mouse ear swelling
Test: Model for inhibition of topical inflammation (oxazolone-induced mouse ear swelling)
Type: in vivo, BALB/c male mice
Conditions: topical to right ear, ear thickness 24 hours after oxazolone challenge
Protocol: Left ears were untreated. The thickness of both ears of each animal was measured with a Dyer model micrometer gauge 24 hours after oxazolone challenge, and the net increase in thickness of right ears versus left ears was calculated for each animal. Percent inhibition was calculated according to the formula: [(Iv-It)/Iv]×100, where Iv and It respectively refer to the average net increase in right ear thickness (mm) for vehicle and candidate compound treated mice.

Row | Compound | % Inh. (dose 2 × 0.3 mg) | % Inh. (dose 2 × 0.3 mg, listed as atorvastatin lactone) | % Inh. (dose 2 × 1 mg) | % Inh. (dose 2 × 2 mg)
1 | CC(C)c1c(C(=O)Nc2ccccc2)c(-c2ccccc2)c(-c2ccc(F)cc2)n1CC[C@@H]1C[C@@H](O)CC(=O)O1 [Atorvastatin lactone] | 40% | 50% and 58% and 40% | 58% | 50%
2 | CC(C)c1nc(N(C)S(C)(=O)=O)nc(-c2ccc(F)cc2)c1/C=C/[C@@H](O)C[C@@H](O)CC(=O)O [Rosuvastatin sodium] | 20% |  |  | 
3 | COc1ccc2c(c1)c(CC(=O)O)c(C)n2C(=O)c1ccc(Cl)cc1 [Indomethacin] | 44% |  |  | 
4 | O=C([O-])C[C@H](O)C[C@H](O)/C=C/c1c(C2CC2)nc2ccccc2c1-c1ccc(F)cc1.O=C([O-])C[C@H](O)C[C@H](O)/C=C/c1c(C2CC2)nc2ccccc2c1-c1ccc(F)cc1.[Ca+2] [Pitavastatin calcium] | 9% |  |  | 60%
5 | CC(C)c1c(C(=O)Nc2ccccc2)c(-c2ccccc2)c(-c2ccc(F)cc2)n1CC[C@@H](O)C[C@@H](O)CC(=O)O [Atorvastatin sodium] | 9% |  | 31% | 63%
6 | CC[C@H](C)C(=O)O[C@H]1C[C@H](O)C=C2C=C[C@H](C)[C@H](CC[C@@H](O)C[C@@H](O)CC(=O)O)[C@H]21 [Pravastatin sodium] | 24% |  |  | 
7 | CC(C)n1c(/C=C/C(O)CC(O)CC(=O)O)c(-c2ccc(F)cc2)c2ccccc21 (stereo not shown) [Fluvastatin sodium] | 28% |  |  | 
